# Measured values from patent publication US20080306040A1, “Antibacterial amide macrocycles VII” (priority 2005, published 2008).
# Where a name gives a salt, the structure may show the parent alone. Read-outs that look alike come from different tables or passages of the source.
# Assays:
# S. aureus RN4220 = experiment: Spontaneous resistance rate, S. aureus RN4220; assay type: cell-based; conditions: agar plate containing 2 μg/ml of biphenomycin B (10×MIC), 37° C. overnight
# Protocol: The spontaneous resistance rates for the compounds of the invention are determined as follows: the bacterial microbes are cultivated in 30 ml of a minimal medium (18.5 mM Na2HPO4, 5.7 mM KH2PO4, 9.3 mM NH4Cl, 2.8 mM MgSO4,17.1 mM NaCl, 0.033 μg/ml of thiamine hydrochloride, 1.2 μg/ml of nicotinic acid, 0.003 μg/ml of biotin, 1% glucose, 25 μg/ml of each proteinogenic amino acid with the addition of 0.4% BH broth) at 37° C. over-night, centrifuged at 6000×g for 10 min and resuspended in 2 ml of a phosphate-buffered physiological NaCl solution (about 2×10^9 microbes/ml). […] The resulting colonies (cfu) are counted.
# The S. aureus strain RN4220Bi^R is isolated in vitro. For this purpose, 100 μl portions of an S. aureus RN4220 cell suspension (about 1.2×10^8 cfu/ml) are plated out on an antibiotic-free agar plate (18.5 mM Na2HPO4, 5.7 mM KH2PO4, 9.3 mM NH4Cl, 2.8 mM MgSO4, 17.1 mM NaCl, 0.033 μg/ml of thiamine hydrochloride, 1.2 μg/ml of nicotinic acid, 0.003 μg/ml of biotin, 1% glucose, 25 μg/ml of each proteinogenic amino acid with the addition of 0.4% BH broth and 1% agarose) and on an agar plate containing 2 μg/ml of biphenomycin B (10×MIC), and incubated at 37° C. overnight. Whereas about […] cells grow on the antibiotic-free plate, about 100 colonies grow on the antibiotic-containing plate, corresponding to a resistance rate of 1×10^−5. […]
# S. aureus T17 = experiment: Minimum inhibitory concentration (MIC), biphenomycin-resistant S. aureus T17; assay type: cell-based; conditions: for MIC: Staphylococcus aureus, T17
# Protocol: (§1) Determination of the Minimum Inhibitory Concentration (MIC)
# (§2) The minimum inhibitory concentration (MIC) is the minimum concentration of an antibiotic with which the growth of a test microbe is inhibited over 18-24 h. The inhibitor concentration can thereby be determined by standard microbiological methods (see, for example, The National Committee for Clinical Laboratory Standards. Methods for dilution antimicrobial susceptibility tests for bacteria that grow aerobically; approved standard-fifth edition. NCCLS document M7-A5 [ISBN 1-56238-394-9]. NCCLS, 940 West Valley Road, Suite 1400, Wayne, Pa. 19087-1898 USA, 2000). The MIC of the compounds of the invention is determined in the liquid dilution test on the 96-well microtiter plate scale. The bacterial microbes are cultivated in a minimal medium (18.5 mM Na2HPO4, 5.7 mM KH2PO4, 9.3 mM NH4Cl, 2.8 mM MgSO4, 17.1 mM NaCl, 0.033 μg/ml of thiamine hydrochloride, 1.2 μg/ml of nicotinic acid, 0.003 μg/ml of biotin, 1% glucose, 25 μg/ml of each proteinogenic amino acid with the exception of phenylalanine; [H.-P. Kroll; unpublished]) with addition of 0.4% BH broth (test medium). In the case of Enterococcus faecium L4001, heat-inactivated fetal calf serum (FCS; GibcoBRL, Germany) is added to the test medium in a final concentration of 10%. Overnight cultures of the test microbes are diluted to an OD578 of 0.001 (to 0.01 in the case of enterococci) in fresh test medium, and incubated 1:1 with dilutions of the test substances (1:2 dilution steps) in test medium (200 μl final volume). The cultures are incubated at 37° C. for 18-24 hours; enterococci in the presence of 5% CO2.
# (§3) The lowest substance concentration in each case at which no visible bacterial growth occurs any longer is defined as the MIC.
# (§4) Alternative Method for Determining the Minimum Inhibitory Concentration (MIC)
# (§5) The minimum inhibitory concentration (MIC) is the minimum concentration of an antibiotic with which the growth of a test microbe is inhibited over 18-24 h. The inhibitor concentration can thereby be determined by standard microbiological methods with modified medium in an agar dilution test (see, for example, The National Committee for Clinical Laboratory Standards. Methods for dilution anti-microbial susceptibility tests for bacteria that grow aerobically; approved standard-fifth edition. NCCLS document M7-A5 [ISBN 1-56238-394-9]. NCCLS, 940 West Valley Road, Suite 1400, Wayne, Pa. 19087-1898 USA, 2000). The bacterial microbes are cultivated on 1.5% agar plates which contain 20% defibrinated horse blood. The test microbes, which are incubated overnight on Columbia blood agar plates (Becton-Dickinson), are diluted in PBS, adjusted to a microbe count of about 5×10^5 microbes/ml and placed dropwise (1-3 μl) on test plates. The test substances comprise different dilutions of the test substances (1:2 dilution steps). The cultures are incubated at 37° C. in the presence of 5% CO2 for 18-24 hours.
# The lowest substance concentration in each case at which no visible bacterial growth occurs any longer is defined as the MIC and is reported in μg/ml.
# The S. aureus strain T17 is isolated in vivo. CFW1 mice are infected intraperitoneally with 4×10^7 S. aureus 133 cells per mouse. 0.5 h after the infection, the animals are treated intravenously with 50 mg/kg of biphenomycin B. The kidneys are removed from the surviving animals on day 3 after the infection. […]
# [1] = biological target: S. aureus 133 Translation; experiment: S. aureus in vitro transcription-translation assay (firefly luciferase, S30 extract); assay type: biochemical; conditions: 50% inhibition of the translation of firefly luciferase
# Excerpt: In Vitro Transcription-Translation with S. aureus Extracts
# Construction of an S. aureus Luciferase Reporter Plasmid
# In order to construct a reporter plasmid which can be used in an in vitro transcription-translation assay from S. aureus the plasmid pBESTluc (Promega Corporation, USA) is used. The E. coli tac promoter present in this plasmid in front of the firefly luciferase is replaced with the capA1 promoter with corresponding Shine-Dalgarno sequence from S. aureus. The primers CAPF or 5′-[…]-[…]-3′ and CAPRev 5′-[…]-3′ are used for this. The primer CAPFor contains the capA1 promoter, the ribosome binding site and the 5′ region of the luciferase gene. After PCR using pBESTluc as template it is possible to isolate a PCR product which contains the firefly luciferase gene with the fused capA1 promoter. This is, after restriction with ClaI and HindIII, ligated into the vector pBESTluc which has likewise been digested with ClaI and HindIII. The resulting plasmid p1a can be replicated in E. coli and be used as template in the S. aureus in vitro transcription-translation test.
# Preparation of S30 Extracts from S. aureus
# Six litres of BHI medium are inoculated with a 250 ml overnight culture of an S. aureus strain and allowed to grow at 37° C. up to an OD600 nm of 2-4. The cells are harvested by centrifugation and washed in 500 ml of cold buffer A (10 mM Tris acetate, pH 8.0, 14 mM magnesium acetate, 1 mM DTT, […]). After renewed centrifugation, the cells are washed in 250 ml of cold buffer A with 50 mM KCl, and the resulting pellets are frozen at −20° C. for 60 min. The pellets are thawed on ice in 30 to 60 min and taken up to a total volume of 99 ml in buffer B (10 mM Tris acetate, pH 8.0, 20 mM magnesium acetate, 1 mM DTT, 50 mM KCl). 1.5 ml portions of lysostaphin (0.8 mg/ml) in buffer B are provided in 3 precooled centrifuge cups and each mixed with 33 ml of the cell suspension. The samples are incubated at 37° C., for 45 to 60 min shaking occasionally, before 150 μl of a 0.5 M DTT solution are added. The lysed cells are centrifuged at 30 000×g and 4° C. for 30 min. The cell pellet is taken up in buffer B and then centrifuged again under the same conditions, and the collected supernatants are combined. The supernatants are centrifuged again under the same conditions, and 0.25 volumes of buffer C (670 mM Tris acetate, pH 8.0, 20 mM magnesium acetate, 7 mM Na3 phosphoenolpyruvate, 7 mM DTT, 5.5 mM ATP, 70 μM amino acids (complete from Promega), 75 μg of pyruvate kinase (Sigma, Germany))/ml are added to the upper ⅔ of the supernatant. […]
# The inhibition of protein biosynthesis of the compounds can be shown in an in vitro transcription-translation assay. […] The activity of the resulting luciferase can be detected by luminescence measurement. […]
# S. aureus 133 [2] = experiment: Minimum inhibitory concentration (MIC), S. aureus 133; assay type: cell-based
# Protocol: as §1, §2, §3, §4
# as §5, with “The test substances comprise different dilutions of the test substances (1:2 dilution steps). The cultures are incubated at 37° C. in the presence of 5% CO2 for 18-24 hours.” left out
# S. aureus RN4220Bi^R = experiment: MIC against biphenomycin-resistant S. aureus RN4220Bi^R; assay type: cell-based; conditions: colony isolated in vitro from antibiotic-containing plate
# Protocol: The S. aureus strain RN4220Bi^R is isolated in vitro. For this purpose, 100 μl portions of an S. aureus RN4220 cell suspension (about 1.2×10^8 cfu/ml) are plated out on an antibiotic-free agar plate (18.5 mM Na2HPO4, 5.7 mM KH2PO4, 9.3 mM NH4Cl, 2.8 mM MgSO4, 17.1 mM NaCl, 0.033 μg/ml of thiamine hydrochloride, 1.2 μg/ml of nicotinic acid, 0.003 μg/ml of biotin, 1% glucose, 25 μg/ml of each proteinogenic amino acid with the addition of 0.4% BH broth and 1% agarose) and on an agar plate containing 2 μg/ml of biphenomycin B (10×MIC), and incubated at 37° C. overnight. Whereas about […] cells grow on the antibiotic-free plate, about 100 colonies grow on the antibiotic-containing plate, corresponding to a resistance rate of 1×10^−5. Some of the colonies grown on the antibiotic-containing plate are tested for the biphenomycin B MIC. One colony with a MIC of >50 μM is selected for further use, and the strain is referred to as RN4220Bi^R.
# S. aureus 133 [3] = experiment: Systemic infection with S. aureus 133 (mouse sepsis model); assay type: in vivo; conditions: female CFW1 mice, i.p. infection, i.v. therapy 30 minutes after infection, survival over 6 days
# [4] = Staphylococcus aureus, 133, read-out: MIC S. aureus 133
SMILES,IC50 [1],MIC (S. aureus T17; biphenomycin-resistant strain),MIC (S. aureus 133 [2]; [4]),other results
"NC[C@H](O)C[C@@H]1NC(=O)[C@@H](N)Cc2cc(ccc2O)-c2ccc(O)c(c2)C[C@@H](C(=O)O)NC1=O [Biphenomycin B, biphenomycin B, reference compound]",1500 nM,,,resistance rate (S. aureus RN4220): 1×10^−5; MIC S. aureus T17 (S. aureus T17; biphenomycin-resistant strain): >32 µg/mL; MIC of selected colony (strain T17) (S. aureus T17; colony isolated in vivo from kidney of treated mice): > 50 µM; MIC S. aureus 133 (S. aureus 133 [2]): <0.03 µg/mL; MIC of selected colony (strain RN4220Bi^R) (S. aureus RN4220Bi^R): > 50 µM
"NCCC[C@H](N)CNC(=O)C[C@H](CCCN)NC(=O)C[C@@H]1Cc2cccc(c2)-c2ccc(O)c(c2)C[C@H](N)C(=O)N[C@@H](CCCN)C(=O)N1 [Example 1, (3S)-6-Amino-3-({[(8S11,S14S)-14-amino-11-(3-aminopropyl)-17-hydroxy-10,13-dioxo-9,12-diazatricyclo[14.3.1.1^2,6]henicosa-1(20),2(21),3,5,16,18-hexaen-8-yl]acetyl{amino)-N-[(2S)-2,5-diaminopentyl]hexanamidepentahydrochloride]",350 nM,2 µg/mL,,"MIC (S. aureus 133 [2]; Staphylococcus aureus, 133; read-out: MIC S. aureus 133): 2 µg/mL"
"NCCC[C@H](NC(=O)C[C@@H]1Cc2cccc(c2)-c2ccc(O)c(c2)C[C@H](N)C(=O)N[C@@H](CCCN)C(=O)N1)C(=O)NCCN [Example 2, N^2-{[(8S,11S,14S)-14-Amino-11-(3-aminopropyl)-17-hydroxy-10,13-dioxo-9,12-diazatricyclo[14.3.1.1^2,6]henicosa-1(20), 2(21),3,5,5,16,18-hexaen-8-yl]acetyl}-N-(2-aminoethyl)-L-ornithinamide tetrahydrochloride]",,,,therapeutic activity ED100 (S. aureus 133 [3]): 1.25 mg/kg
"NCCC[C@H](N)CNC(=O)C[C@@H]1Cc2cccc(c2)-c2ccc(O)c(c2)C[C@H](N)C(=O)N[C@@H](CCCN)C(=O)N1 [Example 5, 2-[(8S,11S,14S)-14-Amino-11-(3-aminopropyl)-17-hydroxy-10,13-dioxo-9,12-diazatricyclo[14.3.1.1^2,6]henicosa-1(20),2(21),3,5,16,18-hexaen-8-yl]-N-[(2S)-2,5-diaminopentyl]acetamide tetrahydrochloride]",700 nM,2 µg/mL,2 µg/mL,
"NCCC[C@H](N)CNC(=O)C[C@@H](N)CCCNC(=O)[C@H](CCCN)NC(=O)C[C@@H]1Cc2cccc(c2)-c2ccc(O)c(c2)C[C@H](N)C(=O)N[C@@H](CCCN)C(=O)N1 [Example 7, (3S)-3-Amino-6-[(N^2-{[(8S,11S,14S)-14-amino-11-(3-aminopropyl)-17-hydroxy-10,13-dioxo-9,12-diazatricyclo[14.3.1.1^2,6]henicosa-1(20), 2(21), 3,5,16,18-hexaen-8-yl]acetyl}-L-ornithyl)amino]-N-[(2S)-2,5-diaminopentyl]hexanamide hexahydrochloride]",200 nM,2 µg/mL,2 µg/mL,
